Results on three substances are retold here after patent US8367639B2, “Hydrogels with covalent and noncovalent crosslinks” (University of Delaware, priority 2005, dated 2013).

The nature of assay [1]: Heparin-sepharose affinity chromatography (NaCl elution). In kind it is binding. Particulars: 25° C. As for the experimental part:
(§1) Heparin-sepharose affinity liquid chromatography was performed on an ÄKTA Explorer FPLC equipped with a HiTrap Heparin HP column (5 ml, ˜10 mg heparin/ml gel, Amersham Biosciences Corp, Piscataway, N.J.). Surface Plasmon Resonance (SPR). SPR sensorgrams were recorded on a BiaCore 3000 instrument (Biacore Inc, Piscataway, N.J.), employing a high-capacity LMWH surface created on a commercially available streptavidin-coated chip via treatment with biotinylated LMWH.
For heparin affinity chromatography experiments, HBPs were loaded onto a heparin-sepharose column, and then eluted with buffer of increasing NaCl concentration. The concentration of NaCl required for peptide elution is used as an indication of the affinity of the peptide for heparin. The elution of the peptides from the heparin-sepharose column required a salt concentration of 962±10 mM for the PF4ZIP peptide.

Assay [2] is described as follows: Surface plasmon resonance on LMWH-modified streptavidin chip. It counts as binding. As for the experimental part: as §1
In SPR experiments, the interaction of the peptides with a LMWH-modified SA chip surface was determined under conditions described in the experimental section. […] In addition, no mass transport limitation or linked reactions were indicated. […] These faster association kinetics, relative to those reported for the ATIII and HIP (Table 2) (see also N. Yamaguchi, B. S. Chae, L. Zhang, K. L. Kiick, E. M. Furst, Rheological characterization of polysaccharide-poly (ethylene glycol) star copolymer hydrogels, Biomacromolecules 6 (4) (2005) 1931-1940) are the primary cause of the lower measured KD values for PF4ZIP-LMWH binding, and the trend of the dissociation constants is consistent with the chromatography results. […] Nevertheless, the equilibrium constants of dissociation determined via both methods are substantially lower than the concentrations employed during hydrogel formation experiments (see below).
The heparin-binding kinetics between LMWH and PF4ZIP were monitored via SPR at several temperatures between 5° C. and 37° C., to determine potential changes in binding kinetics that might alter hydrogel properties under physiological conditions.
Background: In SPR one partner is held on a chip, and binding of the other changes the refractive index at the surface.

For assay [3] the following is noted: NaCl; 25° C.; previously reported studies; cited from earlier work.
The conditions of assay [4]: 25° C.; previously reported studies; cited from earlier work.

Where “and” joins values, the source holds several entries; their conditions need not be identical. Equal values may be shown once. Read-outs that look alike come from different tables or passages of the source. Square brackets hold non-standard residues; d marks the D form. Ends that are not written are not given here. βAla = NCCC(=O)O

As a reminder, the Kd is the equilibrium constant for the complex coming apart. Regarding “CGGRMKQLEDKVKKLLKKNYHLENEVARLKKLVG [PF4ZIP]”, the “Salt required for elution from heparin column” value (“Salt required for elution” below) in assay [1] turned out to be 962 ± 10 mM. The ka in assay [2] (5 ° C.) is 1.56 ± 0.01 × 10^5 M^−1s^−1; in assay [2] (15 ° C.), 1.90 ± 0.04 × 10^5 M^−1s^−1; in assay [2] (25° C.), 2.24±0.05×10^5 M^−1s^−1; in assay [2] (25 ° C. (Table 3)), 2.24 ± 0.05 × 10^5 M^−1s^−1; in assay [2] (37 ° C.), 5.11 ± 0.02 × 10^5 M^−1s^−1. The kd is recorded as 3.74 ± 0.17 × 10^−3 s^−1 in assay [2] (5 ° C.); 1.67 ± 0.03 × 10^−3 s^−1 in assay [2] (15 ° C.); 2.56±0.10×10^−3 s^−1 in assay [2] (25° C.); 2.56 ± 0.10 × 10^−3 s^−1 in assay [2] (25 ° C. (Table 3)); 2.44 ± 0.08 × 10^−3 s^−1 in assay [2] (37 ° C.). Besides, the Kd in assay [2] (25° C.) was ~0.0115 µM and 0.0115 µM.

Take CRPKAKAKAKAKDQTK [HIP]: in assay [3], the “Salt required for elution” value is 687 ± 1 mM. In assay [4], the Kd is 4.2 ± 0.3 µM, the ka was 1.10 ± 0.08 × 10^3 M^−1s^−1 and the kd is recorded as 4.64 ± 0.02 × 10^−3 s^−1.

For “CKbAFAKLAARLYRKA (CK[βAla]FAKLAARLYRKA-NH2; N-terminus assumed; SMILES CC(C)C[C@H](NC(=O)[C@H](CCCCN)NC(=O)[C@H](C)NC(=O)[C@H](Cc1ccccc1)NC(=O)CCNC(=O)[C@H](CCCCN)NC(=O)[C@@H](N)CS)C(=O)N[C@@H](C)C(=O)N[C@@H](C)C(=O)N[C@@H](CCCNC(=N)N)C(=O)N[C@@H](CC(C)C)C(=O)N[C@@H](Cc1ccc(O)cc1)C(=O)N[C@@H](CCCNC(=N)N)C(=O)N[C@@H](CCCCN)C(=O)N[C@@H](C)C(N)=O; listed as Homo sapiens) [ATIII]”, the “Salt required for elution” value in assay [3] is 594 ± 2 mM. Moreover, in assay [4], the Kd is 12.9 ± 1.3 µM, the ka is 1.56 ± 0.06 × 10^2 M^−1s^−1 and the kd is recorded as 2.00 ± 0.3 × 10^−3 s^−1.
